From paper PMC12299203, “Pyrrolopyrimidines: Design, Synthesis and Antitumor Properties of Novel Tricyclic Pyrrolo [2,3-d]pyrimidine Derivatives” (Molecules, 2025)
Where two headings read alike, the source gives them in different places.

Tests used:
HT-29 (colon) cell line [1] = system: HT-29 (colon) cell line; set-up: method as in PMID 36197552; settings: previous research ref 29; cited from earlier work
[2] = system: HeLa (cervical) cell line; set-up: method as in PMID 36197552; settings: previous research ref 29; cited from earlier work
[3] = system: HeLa (cervical) cell line; experiment: MTT cytotoxic activity assay, HeLa; format: cell-based, human; settings: 72 h; for IC50: Homo sapiens, HeLa
Procedure: (§1) All the synthesized tricyclic pyrrolo[2,3-d]pyrimidines 8a–j and 10a–f were evaluated for their cytotoxic activity on cancer cell lines derived from the most common cancers: breast (MCF-7), cervical (HeLa), and colon (HT-29). Human cancer cell lines were treated with synthesized compounds, using doxorubicin (DOX) as a positive control, at concentrations of the compounds ranging from 0.001 to 6.561 μM. Cells were incubated at 37 °C for 72 h before measurement, and IC50 values were determined graphically. In our previous research, the cytotoxic activity of compounds 6a and 6b was also evaluated on the same human cancer cell lines used in the current study.
(§2) The MCF-7, HeLa, and HT-29 cell lines, obtained from the Chinese Type Culture Collection, CAS (Shanghai, China), were used as models for cytotoxicity screening. The samples were dissolved in dimethyl sulfoxide (DMSO) (50 μM) and stored at 4 °C. Cell viability was determined using the MTT assay. For the MTT assay, the target cells were seeded in 96-well plates and treated with the synthesized samples for 72 h. Then, 5 mg/mL MTT was added to the culture medium, and 10 μL/well was added. The plate was then incubated in the dark at 37 °C for 4 h. The medium was removed, and 100 μL of dimethyl sulfoxide was added per well. OD570 was measured using Spectra Max M5 (Molecular Devices, CA, USA). Cell viability (%) = ODcompound /ODDMSO × 100%. IC50 values were calculated using GraphPad Prism 9 (CA, USA) by nonlinear regression of the log-transformed data (X Log[X]), with the log (inhibitor) vs. normalized response-variable slope tool.

HT-29 (colon) cell line [4] = experiment: MTT cytotoxic activity assay, HT-29; format: cell-based; settings: Homo sapiens, 72 h
Procedure: as §1, §2

MCF-7 (breast) cell line = experiment: MTT cytotoxic activity assay, MCF-7; format: cell-based, human; settings: for IC50: Homo sapiens, MCF7, 72 h
Procedure: as §1, §2

[5] = system: human embryonic kidney (HEK-293) cells; experiment: Cytotoxicity on non-cancerous HEK-293 cells; format: cell-based; settings: HEK293, read-out: IC50 (±SD), HEK-293
Procedure: On the other hand, the inactivity of these leads on HeLa and MCF-7 cells (IC50 ≥ 50 µM) indicates specific tumor type selectivity. […] The selectivity index (SI) was then calculated as the ratio of the IC50 values for HEK-293 and HT-29 cells and is shown in Table 2.
as §2

[6] = system: HeLa, MCF-7 and HT-29 cell lines; experiment: MTT cytotoxic activity, stated across the three cancer cell lines; format: cell-based, human; settings: span over HeLa, MCF-7, HT-29; for IC50: Homo sapiens, read-out: IC50 across all three cell lines
Procedure: as §1, §2

SMILES | IC50 [3] [µM] | IC50 (HT-29 (colon) cell line [4]) [µM] | IC50 (MCF-7 (breast) cell line) [µM] | further results
Cn1c(-c2ccc(Cl)cc2)cc2c(=O)n3c(nc21)CCCC3 [Compound 6a, 2-(4-Chlorophenyl)-1-methyl-6,7,8,9-tetrahydropyrido[1,2-a]pyrrolo[2,3-d]pyrimidin-4(1H)-one] |  |  |  | IC50 (HT-29 (colon) cell line [1]): 24 ± 0.47 µM; IC50 [2]: 6.55 ± 0.31 µM
Cn1c(-c2ccc(Br)cc2)cc2c(=O)n3c(nc21)CCCCC3 [Compound 6b, 2-(4-Bromophenyl)-1-methyl-1,6,7,8,9,10-hexahydro-4H-pyrrolo[2’,3’:4,5]pyrimido[1,2-a]azepin-4-one] |  |  |  | IC50 (HT-29 (colon) cell line [1]): 7.61 ± 0.31 µM; IC50 [2]: ≥ 50 µM
Cn1c(-c2ccc(Cl)cc2)cc2/c(=N\c3ccccc3)n3c(nc21)CCCC3 [Compound 8a, (E)-2-(4-Chlorophenyl)-1-methyl-N-phenyl-6,7,8,9-tetrahydropyrido[1,2-a]pyrrolo[2,3-d]pyrimidin-4(1H)-imine] | ≥ 50 | 19.2 ± 0.91 | ≥ 50 | 
Cn1c(-c2ccc(Cl)cc2)cc2/c(=N\c3ccc(F)cc3)n3c(nc21)CCCC3 [Compound 8b, (E)-2-(4-Chlorophenyl)-N-(4-fluorophenyl)-1-methyl-6,7,8,9-tetrahydropyrido[1,2-a]pyrrolo[2,3-d]pyrimidin-4(1H)-imine] | ≥ 50 | ≥ 50 | ≥ 50 | 
Cn1c(-c2ccc(Cl)cc2)cc2/c(=N\c3ccc(Cl)cc3)n3c(nc21)CCCC3 [Compound 8c, (E)-N,2-Bis(4-chlorophenyl)-1-methyl-6,7,8,9-tetrahydropyrido[1,2-a]pyrrolo[2,3-d]pyrimidin-4(1H)-imine] | ≥ 50 | ≥ 50 | ≥ 50 | 
Cn1c(-c2ccc(Cl)cc2)cc2/c(=N\c3ccc(Br)cc3)n3c(nc21)CCCC3 [Compound 8d, (E)-N-(4-Bromophenyl)-2-(4-chlorophenyl)-1-methyl-6,7,8,9-tetrahydropyrido[1,2-a]pyrrolo[2,3-d]pyrimidin-4(1H)-imine] | ≥ 50 | ≥ 50 | ≥ 50 | 
Cn1c(-c2ccc(Cl)cc2)cc2/c(=N\c3ccc(C(F)(F)F)cc3)n3c(nc21)CCCC3 [Compound 8e, (E)-2-(4-Chlorophenyl)-1-methyl-N-(4-(trifluoromethyl)phenyl)-6,7,8,9-tetrahydropyrido[1,2-a]pyrrolo[2,3-d]pyrimidin-4(1H)-imine] | ≥ 50 | ≥ 50 | ≥ 50 | 
Cn1c(-c2ccc(Br)cc2)cc2/c(=N\c3ccccc3)n3c(nc21)CCCCC3 [Compound 8f, (E)-2-(4-Bromophenyl)-1-methyl-N-phenyl-1,6,7,8,9,10-hexahydro-4H-pyrrolo[2’,3’:4,5]pyrimido[1,2-a]azepin-4-imine] | ≥ 50 | 4.55 ± 0.23 | ≥ 50 | IC50 [5]: 195 ± 0.07 µM
Cn1c(-c2ccc(Br)cc2)cc2/c(=N\c3ccc(F)cc3)n3c(nc21)CCCCC3 [Compound 8g, (E)-2-(4-Bromophenyl)-N-(4-fluorophenyl)-1-methyl-1,6,7,8,9,10-hexahydro-4H-pyrrolo[2’,3’:4,5]pyrimido[1,2-a]azepin-4-imine] | ≥ 50 | 4.01 ± 0.2 | ≥ 50 | IC50 [5]: 169 ± 0.1 µM
Cn1c(-c2ccc(Br)cc2)cc2/c(=N\c3ccc(Cl)cc3)n3c(nc21)CCCCC3 [Compound 8h, (E)-2-(4-Bromophenyl)-N-(4-chlorophenyl)-1-methyl-1,6,7,8,9,10-hexahydro-4H-pyrrolo[2’,3’:4,5]pyrimido[1,2-a]azepin-4-imine] | ≥ 50 | ≥ 50 | ≥ 50 | 
Cn1c(-c2ccc(Br)cc2)cc2/c(=N\c3ccc(Br)cc3)n3c(nc21)CCCCC3 [Compound 8i, (E)-N,2-Bis(4-bromophenyl)-1-methyl-1,6,7,8,9,10-hexahydro-4H-pyrrolo[2’,3’:4,5]pyrimido[1,2-a]azepin-4-imine] | ≥ 50 | ≥ 50 | ≥ 50 | 
Cn1c(-c2ccc(Br)cc2)cc2/c(=N\c3ccc(C(F)(F)F)cc3)n3c(nc21)CCCCC3 [Compound 8j, (E)-2-(4-Bromophenyl)-1-methyl-N-(4-(trifluoromethyl)phenyl)-1,6,7,8,9,10-hexahydro-4H-pyrrolo[2’,3’:4,5]pyrimido[1,2-a]azepin-4-imine] | ≥ 50 | ≥ 50 | ≥ 50 | 
Cn1c(-c2ccc(Cl)cc2)c(Cl)c2c(=O)n3c(nc21)CCCC3 [Compound 10a, 3-Chloro-2-(4-chlorophenyl)-1-methyl-6,7,8,9-tetrahydropyrido[1,2-a]pyrrolo[2,3-d]pyrimidin-4(1H)-one] | 22.8 ± 0.98 | 24.7 ± 1.13 | 27.5 ± 1.07 | IC50, HeLa [3]: moderate activity; IC50 [6]: 23 to 28 µM
Cn1c(-c2ccc(Cl)cc2)c(Br)c2c(=O)n3c(nc21)CCCC3 [Compound 10b, 3-Bromo-2-(4-chlorophenyl)-1-methyl-6,7,8,9-tetrahydropyrido[1,2-a]pyrrolo[2,3-d]pyrimidin-4(1H)-one] | ≥ 50 | ≥ 50 | 20.1 ± 0.93 | IC50 across all three cell lines [6]: selective yet weaker activity; IC50, MCF-7 (MCF-7 (breast) cell line; 72 h): moderate activity
Cn1c(-c2ccc(Cl)cc2)c(I)c2c(=O)n3c(nc21)CCCC3 [Compound 10c, 2-(4-Chlorophenyl)-3-iodo-1-methyl-6,7,8,9-tetrahydropyrido[1,2-a]pyrrolo[2,3-d]pyrimidin-4(1H)-one] | ≥ 50 | 34.2 ± 1.6 | ≥ 50 | IC50 across all three cell lines [6]: selective yet weaker activity
Cn1c(-c2ccc(Br)cc2)c(Cl)c2c(=O)n3c(nc21)CCCCC3 [Compound 10d, 2-(4-Bromophenyl)-3-chloro-1-methyl-1,6,7,8,9,10-hexahydro-4H-pyrrolo[2’,3’:4,5]pyrimido[1,2-a]azepin-4-one] | ≥ 50 | ≥ 50 | ≥ 50 | 
Cn1c(-c2ccc(Br)cc2)c(Br)c2c(=O)n3c(nc21)CCCCC3 [Compound 10e, 3-Bromo-2-(4-bromophenyl)-1-methyl-1,6,7,8,9,10-hexahydro-4H-pyrrolo[2’,3’:4,5]pyrimido[1,2-a]azepin-4-one] | ≥ 50 | 16 ± 0.75 | ≥ 50 | IC50 across all three cell lines [6]: selective yet weaker activity
Cn1c(-c2ccc(Br)cc2)c(I)c2c(=O)n3c(nc21)CCCCC3 [Compound 10f, 2-(4-Bromophenyl)-3-iodo-1-methyl-1,6,7,8,9,10-hexahydro-4H-pyrrolo[2’,3’:4,5]pyrimido[1,2-a]azepin-4-one] | ≥ 50 | 19 ± 0.92 | ≥ 50 | IC50 across all three cell lines [6]: selective yet weaker activity
COc1cccc2c1C(=O)c1c(O)c3c(c(O)c1C2=O)C[C@@](O)(C(=O)CO)C[C@@H]3O[C@H]1C[C@H](N)[C@H](O)[C@H](C)O1 [DOX, doxorubicin, reference compound] | 0.94 ± 0.016 | 0.82 ± 0.029 | 0.18 ± 0.011 | IC50 [6]: 0.18 to 0.94 µM
